Measured values taken from patent US20060030603A1, “Novel aryl urea analogs and use thereof as antibacterial agents” (priority 2004, published 2006).
≈ marks a conversion by molar mass, not a printed value. Like-named read-outs stand apart in the source and are kept apart here.

Key:
S. aureus ATCC 13709 = assay: MIC assay, S. aureus; type: cell-based
Protocol: (§1) In vitro structure/activity relationship (“SAR”) tests were performed according to the following procedure: MIC assays were carried out in a 150 μL volume in duplicate in 96-well clear flat-bottom plates. The bacterial suspension from an overnight culture growth in the appropriate medium was added to a solution of test compound in 0.5% DMSO in water. Final bacterial inoculum was approximate 10^3-10^4 CFU/well. The percentage growth of the bacteria in the test wells relative to that observed for a control well containing no compound was determined by measuring absorbance at 595 nm (A595) after 20-24 h at 37° C. […] The bacterial strains used for the assays include S. aureus ATCC 13709, S. pyogenes ATCC 49399, E. faecalis ATCC 29212, E. faecium ATCC 6569, E. coli ATCC 25922, K. pneumoniae ATCC 13383, P. vulgaris ATCC 8427, P. aeruginosa ATCC 25416. The results of the in vitro SAR tests are in Tables 1-3.

E. faecalis ATCC 29212 = assay: MIC assay, E. faecalis; type: cell-based; details: Enterococcus faecalis, ATCC29212; read-out: MIC E. faecalis ATCC 29212
Protocol: as §1

P. aeruginosa ATCC 25416 = assay: MIC assay, P. aeruginosa; type: cell-based; details: Pseudomonas aeruginosa, ATCC25416; read-out: MIC P. aeruginosa ATCC 25416
Protocol: as §1

E. faecium ATCC 6569 = assay: MIC assay, E. faecium; type: cell-based; details: Enterococcus faecium, ATCC6569; read-out: MIC E. faecium ATCC 6569
Protocol: as §1

E. coli ATCC 25922 = assay: MIC assay, E. coli; type: cell-based; details: Escherichia coli, ATCC25922; read-out: MIC E. coli ATCC 25922
Protocol: as §1

S. pyogenes ATCC 49399 = assay: MIC assay, S. pyogenes; type: cell-based; details: Streptococcus pyogenes, ATCC49399; read-out: MIC S. pyogenes ATCC 49399
Protocol: as §1

K. pneumoniae ATCC 13383 = assay: MIC assay, K. pneumoniae; type: cell-based; details: Klebsiella pneumoniae, ATCC13383; read-out: MIC K. pneumoniae ATCC 13383
Protocol: as §1

P. vulgaris ATCC 8427 = assay: MIC assay, P. vulgaris; type: cell-based; details: Proteus vulgaris, ATCC8427; read-out: MIC P. vulgaris ATCC 8427
Protocol: as §1

S. aureus (ATCC 13709) = assay: Mouse Protection Assay (lethal murine model of bacterial infection); type: in vivo, ICR-CD-1 female mice; details: 1 × 2 mg/Kg, positive control, 1 h and 3 h post infection, one week
Protocol: The in vivo tests were preformed according to the following procedure:
Mouse Protection Assay: 10 mice/dose group (ICR-CD-1 female mice 18-20 grams, Charles River) were infected with a lethal dose (10^6 CFU/mouse) of S. aureus (ATCC 13709) suspended in 7.5% hog Gastric Mucin IP. The infected animals were treated at 1 h and 3 h post infection with either compound 12e (lactate salt) from 37 mg/kg down to 2.3 mg/kg or compound 14b (HCl salt) from 75 mg/kg down to 2.3 mg/kg (0.1 mL/mouse). The positive control drug was Vancomycin (Eli Lilly) 1 mg/kg.

[1] = Table 1, thiourea/urea analogs, acetate salts
[2] = Staphylococcus aureus, ATCC13709, read-out: MIC S. aureus
[3] = Table 2, benzylamino group modified analogs
[4] = Table 2, benzylamino group modified analogs, read-out: MIC S. aureus

SMILES	MIC S. aureus (S. aureus ATCC 13709; [1])	MIC S. aureus (S. aureus ATCC 13709; [3])	other results
Fc1ccccc1NC(=S)NCCCNCc1cc(Br)cc(Br)c1 [8a]	25 to 50 µM		
COc1ccccc1NC(=S)NCCCNCc1cc(Br)cc(Br)c1 [8c]			MIC (S. aureus ATCC 13709; Table 1, thiourea/urea analogs, acetate salts, read-out: MIC S. aureus): >100 µM
CSc1ccccc1NC(=S)NCCCNCc1cc(Br)cc(Br)c1 [8d]	50 to 100 µM		
Fc1ccc(NC(=S)NCCCNCc2cc(Br)cc(Br)c2)c(F)c1F [8e]	6 to 12 µM		
Fc1cccc(NC(=S)NCCCNCc2cc(Br)cc(Br)c2)c1 [8f]	12 to 25 µM		
S=C(NCCCNCc1cc(Br)cc(Br)c1)Nc1cccc(Cl)c1 [8g]	6 to 12 µM		
S=C(NCCCNCc1cc(Br)cc(Br)c1)Nc1cccc(Br)c1 [8h]	6 to 12 µM		
FC(F)(F)c1cccc(NC(=S)NCCCNCc2cc(Br)cc(Br)c2)c1 [8i]	6 to 12 µM		
COc1cccc(NC(=S)NCCCNCc2cc(Br)cc(Br)c2)c1 [8j]	25 to 50 µM		
S=C(NCCCNCc1cc(Br)cc(Br)c1)Nc1ccc(Cl)c(Cl)c1 [8k, 1-[3-(3,5-Dibromo-benzylamino)-propyl]-3-(3,4-dichloro-phenyl)-thiourea]			MIC (S. aureus ATCC 13709; [2]): 3 to 6 µM (≈ 1.58 to 3.16 µg/mL)
Fc1ccc(NC(=S)NCCCNCc2cc(Br)cc(Br)c2)cc1 [8l]	12 to 25 µM		
S=C(NCCCNCc1cc(Br)cc(Br)c1)Nc1ccc(Cl)cc1 [8m]	6 to 12 µM		
S=C(NCCCNCc1cc(Br)cc(Br)c1)Nc1ccc(Br)cc1 [8n]	12 to 25 µM		
S=C(NCCCNCc1cc(Br)cc(Br)c1)Nc1ccc(I)cc1 [8o]	12 to 25 µM		
FC(F)(F)c1ccc(NC(=S)NCCCNCc2cc(Br)cc(Br)c2)cc1 [8p]	6 to 12 µM		
O=[N+]([O-])c1ccc(NC(=S)NCCCNCc2cc(Br)cc(Br)c2)cc1 [8q]	12 to 25 µM		
Cc1ccc(NC(=S)NCCCNCc2cc(Br)cc(Br)c2)cc1 [8r]	12 to 25 µM		
N#Cc1ccc(NC(=S)NCCCNCc2cc(Br)cc(Br)c2)cc1 [8s]	25 to 50 µM		
COc1ccc(NC(=S)NCCCNCc2cc(Br)cc(Br)c2)cc1 [8t]	25 to 50 µM		
COc1ccccc1NC(=O)NCCCNCc1cc(Br)cc(Br)c1 [9a]	25 to 50 µM		
O=C(NCCCNCc1cc(Br)cc(Br)c1)Nc1cccc(C(F)(F)F)c1 [9b]	6 to 12 µM		
O=C(NCCCNCc1cc(Br)cc(Br)c1)Nc1ccc(Cl)cc1 [9c]	6 to 12 µM		
O=C(NCCCNCc1cc(Br)cc(Br)c1)Nc1ccc(C(F)(F)F)cc1 [9d, 1-[3-(3,5-Dibromo-benzylamino)-propyl]-3-(4-trifluoromethyl-phenyl)-urea]		3 to 6 µM	MIC (S. aureus ATCC 13709; [2]): 3 to 6 µM (≈ 1.53 to 3.05 µg/mL)

SMILES	MIC S. aureus (S. aureus ATCC 13709; [1])	MIC S. aureus (S. aureus ATCC 13709; [3])	other results
CSc1ccc(NC(=O)NCCCNCc2cc(Br)cc(Br)c2)cc1 [9e]	25 to 50 µM		
O=C(NCCCNCc1cc(Br)cc(Br)c1)Nc1ccc(OC(F)(F)F)cc1 [9g]	6 to 12 µM		
O=C(NCCCNCc1ccccc1OC(F)(F)F)Nc1ccc(C(F)(F)F)cc1 [12b]		12 to 25 µM	
O=C(NCCCNCc1cccc(-c2ccccc2)c1)Nc1ccc(C(F)(F)F)cc1 [12c]		6 to 12 µM	
O=C(NCCCNCc1ccc(OC(F)(F)F)cc1)Nc1ccc(C(F)(F)F)cc1 [12d]		3 to 6 µM	
COc1ccc(-c2ccc(CNCCCNC(=O)Nc3ccc(C(F)(F)F)cc3)cc2)cc1 [12f]		3 to 6 µM	
COc1ccccc1-c1ccc(CNCCCNC(=O)Nc2ccc(C(F)(F)F)cc2)cc1 [12g]		6 to 12 µM	
CN(C)c1ccc(CNCCCNC(=O)Nc2ccc(C(F)(F)F)cc2)cc1 [12j]		12 to 25 µM	
CC(=O)Nc1ccc(CNCCCNC(=O)Nc2ccc(C(F)(F)F)cc2)cc1 [12k]			MIC (S. aureus ATCC 13709; [4]): >100 µM
O=C(NCCCNCc1cc(Cl)cc(Cl)c1)Nc1ccc(C(F)(F)F)cc1 [12m]		6 to 12 µM	
O=C(NCCCNCc1cc(F)cc(F)c1)Nc1ccc(C(F)(F)F)cc1 [12n]		50 to 100 µM	
O=C(NCCCNCc1cc(C(F)(F)F)cc(C(F)(F)F)c1)Nc1ccc(C(F)(F)F)cc1 [12o]		50 to 100 µM	
COc1cc(CNCCCNC(=O)Nc2ccc(C(F)(F)F)cc2)cc(OC)c1 [12p]		50 to 100 µM	
O=C(NCCCNCc1ccc(Cl)c(Cl)c1)Nc1ccc(C(F)(F)F)cc1 [12q]		3 to 6 µM	
O=C(NCCCNCc1cc(Br)cc(Br)c1O)Nc1ccc(C(F)(F)F)cc1 [12r]			MIC (S. aureus ATCC 13709; [4]): >100 µM
COc1cc(Br)cc(CNCCCNC(=O)Nc2ccc(C(F)(F)F)cc2)c1O [12t]		12 to 25 µM	
CCOc1ccc(Br)cc1CNCCCNC(=O)Nc1ccc(C(F)(F)F)cc1 [12u]		6 to 12 µM	
O=C(NCCCNCCCOc1ccc(Br)cc1Br)Nc1ccc(C(F)(F)F)cc1 [14a, 1-{3-[3-(2,4-Dibromo-phenoxy)-propylamino]-propyl}-3-(4-trifluoromethyl-phenyl)-urea]			MIC (S. aureus ATCC 13709; Staphylococcus aureus, ATCC13709, Table 2, benzylamino group modified analogs, read-out: MIC S. aureus): 3 to 6 µM (≈ 1.66 to 3.32 µg/mL)
O=C(NCCCNCc1ccc(Br)[nH]1)Nc1ccc(C(F)(F)F)cc1 [15e, 1-{3-[(5-bromo-1H-pyrrol-2-ylmethyl)-amino]-propyl}-3-(4-trifluoromethyl-phenyl)-urea]			MIC (S. aureus ATCC 13709; Staphylococcus aureus, ATCC13709, Table 3, heteroaryl analogs, read-out: MIC S. aureus): 3 to 6 µM (≈ 1.26 to 2.52 µg/mL)
CC(=O)NC[C@H]1CN(c2ccc(N3CCOCC3)c(F)c2)C(=O)O1 [Linezolide, reference compound]		3 to 6 µM	MIC (S. aureus ATCC 13709; Staphylococcus aureus, ATCC13709, Table 1, thiourea/urea analogs, acetate salts, read-out: MIC S. aureus): 3 to 6 µM; MIC (S. aureus ATCC 13709; Staphylococcus aureus, ATCC13709, Table 4, read-out: MIC S. aureus ATCC 13709): 3 to 6 µM (≈ 1.01 to 2.02 µg/mL); MIC (E. faecalis ATCC 29212): 3 to 6 µM (≈ 1.01 to 2.02 µg/mL); MIC (P. aeruginosa ATCC 25416): > 100 µM; MIC (E. faecium ATCC 6569): > 100 µM; MIC (E. coli ATCC 25922): > 100 µM; MIC (S. pyogenes ATCC 49399): 1.5 to 3 µM (≈ 0.506 to 1.01 µg/mL); MIC (K. pneumoniae ATCC 13383): > 100 µM; MIC (P. vulgaris ATCC 8427): 12 to 25 µM (≈ 4.05 to 8.43 µg/mL)
CN[C@H](CC(C)C)C(=O)N[C@H]1C(=O)N[C@@H](CC(N)=O)C(=O)N[C@H]2C(=O)N[C@H]3C(=O)N[C@H](C(=O)N[C@H](C(=O)O)c4cc(O)cc(O)c4-c4cc3ccc4O)[C@H](O)c3ccc(c(Cl)c3)Oc3cc2cc(c3O[C@@H]2O[C@H](CO)[C@@H](O)[C@H](O)[C@H]2O[C@H]2C[C@](C)(N)[C@H](O)[C@H](C)O2)Oc2ccc(cc2Cl)[C@H]1O [Vancomycin, reference compound]			Mice Alive/Total (S. aureus (ATCC 13709)): 10/10
CN(CCCNC(=O)Nc1ccc(C(F)(F)F)cc1)Cc1cc(Br)cc(Br)c1 [compound 13]			MIC (S. aureus ATCC 13709; [4]): >100 µM
